Where two headings read alike, the source gives them in different places. Where a SMILES comes first, the peptide text is derived from it. Bridges are numbered along the chain shown (N, C = ends). [ ]: non-standard residue; d: D form. The star is where a group is joined. X2 = CC[C@H](C)CCCCC(=O)*; Dab = NCC[C@H](N)C(=O)O
Tests used:
[1] = tested on: K. pneumoniae ATCC 10031 (SEN) and K. pneumoniae ATCC 700603 (MDR); test: Frequency-of-resistance (FoR) assay, relative MIC of mutants; type: cell-based, Klebsiella pneumoniae; conditions: for MIC: Klebsiella pneumoniae; for Relative MIC: Klebsiella pneumoniae ATCC 10031 (KP-SEN)
Procedure: The susceptibility of antibiotics to resistance development was evaluated in two strains of each bacterial species: a multidrug-resistant strain and an antibiotic-sensitive strain of Escherichia coli, Klebsiella pneumoniae, Acinetobacter baumannii, and Pseudomonas aeruginosa. To explore first-step resistance, we previously used a standard protocol for spontaneous frequency-of-resistance analysis (FoR assay) at multiple concentrations of each antibiotic[10],[28],[31]–[33]. […] For all other combinations, approximately 10^10 bacterial cells were exposed to one of each antibiotic on agar plates for two days at concentrations where the given strain is susceptible. We examined resistance levels by contrasting the minimum inhibitory concentration (MICs) of the mutated strains to the original wild-type bacterial strain (i.e., relative MIC).
To estimate the frequency of spontaneous mutations that confer resistance in a microbial population, we conducted a frequency of resistance (FoR) assay following established protocols[10],[31]–[33]. […] Prior to plating, bacteria were grown overnight in MHB medium at 37 °C and 250 RPM, then centrifuged and washed in MHB. All experiments were performed in triplicate, and plates were incubated at 37 °C for 48 hours. Total colony-forming units (CFUs) were determined by plating appropriate dilutions onto antibiotic-free MHB agar. Resistance frequencies were calculated by dividing the number of resistant colonies by the initial viable cell count. From the plates with the highest antibiotic concentration, ten colonies were selected for MIC determination and whole-genome sequencing.
(§1) A robotic liquid handling system was used to automatically prepare a 11 to 16-step serial dilution in 384-well microtiter plates (Greiner). A final concentration of 5 × 10^5 bacterial cells per mL were inoculated into each well containing 60 µL MHB medium. Bacterial cultures were incubated at 37 °C with continuous shaking (Infors shaker, 900 rpm with 3 mm throw) for 18 hours (2 replicates from each). Cell growth was monitored by measuring the optical density (OD600 values, using Biotek Synergy microplate reader). MIC was defined as the antibiotic concentration of complete growth inhibition (i.e., OD600 < 0.05). Relative MIC was calculated as follows:1 relativeMIC=MICevolved/MICancestor […]
Supplementary Figure 3. Resistance levels following the frequency of resistance assay across bacterial strains. The level of resistance was measured as the fold change in relative MIC between evolved and ancestral strains. Data are grouped by bacterial strain (A. baumannii (AB), E. coli (EC), K. pneumoniae (KP), and P. aeruginosa (PA)) and categorized as either multidrug-resistant (MDR) or sensitive (SEN). Each data point represents a laboratory evolved line, and boxplots show the median, first and third quartiles, with whiskers indicating the 5th and 95th percentiles. […]
(§2) analysis was performed using two-sided Dunn’s post-hoc test with Benjamini-Hochberg correction for multiple comparisons (**/ * indicates p < 0.01/ 0.05). For detailed information on antibiotic and bacterial species, see Supplementary Table 1. For mode of action groups, refer to Table 1. Source data are provided as a Source Data file.

[2] = tested on: E. coli ATCC 25922 (SEN) and E. coli NCTC13846 (MDR); test: Adaptive laboratory evolution (ALE), relative MIC of evolved lines; type: cell-based, Escherichia coli
Excerpt: Using the same set of bacterial strains, we initiated adaptive laboratory evolution with the aim to maximize the level of antibiotic resistance in the populations achieved during a longer, but fixed time period.
An established protocol for adaptive laboratory evolution[46],[73] was followed to propagate populations with the highest resistance levels. Starting with an antibiotic concentration that caused approximately 50% growth inhibition, ten parallel populations for each antibiotic-ancestor strain combination were grown for 72 hours at 37 °C with continuous shaking (300 RPM). MHB broth medium was used unless stated otherwise. After each incubation, 20 µl of each culture was transferred to four new wells containing fresh medium with increasing antibiotic concentrations (0.5×, 1×, 1.5×, and 2.5× the previous concentration) in a chessboard layout to monitor potential cross-contamination. Growth was monitored by measuring OD600 using a Biotek Synergy 2 microplate reader, and only populations grown in the highest drug concentration with an OD600 > 0.2 were transferred further.
as §1
Supplementary Figure 4. Resistance levels following adaptive laboratory evolution across bacterial strains. The level of resistance was measured as the fold change in relative MIC between evolved and ancestral strains after ~60 days of adaptive laboratory evolution. Data are grouped by bacterial strain (A. baumannii (AB), E. coli (EC), K. pneumoniae (KP), and P. aeruginosa (PA)) and categorized as either multidrug-resistant (MDR) or sensitive (SEN). Each data point represents a laboratory evolved line, and boxplots show the median, first and third quartiles, with whiskers indicating the 5th and 95th percentiles.
as §2, with “Statistical analysis” for “analysis”, “(****/ ***/ **/” for “(**/”, “< 0.0001/ 0.001/” for “<”
(1 picture or pasted object on this page, not shown here)

[3] = read-out: MIC of evolved line, Klebsiella pneumoniae ATCC 10031 (KP-SEN), evolved line 1
[4] = read-out: MIC of evolved line, Klebsiella pneumoniae ATCC 10031 (KP-SEN), evolved line 2
[5] = read-out: MIC of evolved line, Klebsiella pneumoniae ATCC 10031 (KP-SEN), evolved line 3
[6] = EC-SEN (Escherichia coli ATCC 25922), evolved line 4
[7] = EC-SEN (Escherichia coli ATCC 25922), evolved line 8
[8] = EC-SEN (Escherichia coli ATCC 25922), evolved line 10

C[C@@H](O)[C@H]1C(=O)N2C(C(=O)O)=C(S[C@@H]3CN[C@H](C(=O)N(C)C)C3)[C@H](C)[C@H]12 [Meropenem]
0.0156 µg/mL: MIC [1, 3] | MIC [1, 4] | MIC [1, 5]
0.0625 µg/mL: MIC ([1]; read-out: MIC of evolved line, Klebsiella pneumoniae ATCC 700603 (KP-MDR), evolved line 2)
2 µg/mL: MIC ([1]; read-out: MIC of evolved line, Klebsiella pneumoniae ATCC 700603 (KP-MDR), evolved line 1)
1 µg/mL: MIC ([1]; read-out: MIC of evolved line, Klebsiella pneumoniae ATCC 700603 (KP-MDR), evolved line 3)

CC[C@H](C)CCCCC(=O)N[C@@H](CCN)C(=O)N[C@H](C(=O)N[C@@H](CCN)C(=O)N[C@H]1CCNC(=O)[C@H]([C@@H](C)O)NC(=O)[C@H](CCN)NC(=O)[C@H](CCN)NC(=O)[C@H](CC(C)C)NC(=O)[C@@H](Cc2ccccc2)NC(=O)[C@H](CCN)NC1=O)[C@@H](C)O [Polymyxin B] (X2-[Dab]T[Dab][Dab][Dab][dF]L[Dab][Dab]T; lactam 4-C (inferred); N-terminus assumed)
1.505 log10: Relative MIC (log10) ([2]; EC-MDR (Escherichia coli NCTC 13846), evolved line 2) | Relative MIC (log10) ([2]; EC-MDR, Escherichia coli NCTC 13846, evolved line 1)
2.107 log10: Relative MIC (log10) [2, 6] | Relative MIC (log10) ([2]; EC-SEN (Escherichia coli ATCC 25922), evolved line 6) | Relative MIC (log10) [2, 7] | Relative MIC (log10) [2, 8] | Relative MIC (log10) ([2]; EC-SEN, Escherichia coli ATCC 25922, evolved line 2)
1.204 log10: Relative MIC (log10) ([2]; EC-MDR (Escherichia coli NCTC 13846), evolved line 5) | Relative MIC (log10) ([2]; EC-MDR (Escherichia coli NCTC 13846), evolved line 10) | Relative MIC (log10) ([2]; EC-MDR, Escherichia coli NCTC 13846, evolved line 6)

C[C@@H]1CN2c3c(cc4c(N5C(=O)OC[C@@H]5C)noc4c3F)CC3(C(=O)NC(=O)NC3=O)[C@H]2[C@H](C)O1 [Zoliflodacin]
4 µg/mL: MIC [1, 3]
256: Relative MIC ([2]; EC-SEN (E. coli ATCC 25922), evolved line 5 vs ancestor) | Relative MIC ([2]; Escherichia coli ATCC 25922 (EC-SEN), evolved line 5)
16 µg/mL: MIC [1, 4] | MIC [1, 5]
64: Relative MIC ([2]; EC-SEN (E. coli ATCC 25922), evolved line 1 vs ancestor) | Relative MIC ([2]; EC-SEN (E. coli ATCC 25922), evolved line 7 vs ancestor) | Relative MIC ([2]; EC-SEN (E. coli ATCC 25922), evolved line 9 vs ancestor) | Relative MIC ([2]; Escherichia coli ATCC 25922 (EC-SEN), evolved line 1) | Relative MIC ([2]; Escherichia coli ATCC 25922 (EC-SEN), evolved line 7) | Relative MIC ([2]; Escherichia coli ATCC 25922 (EC-SEN), evolved line 9)
32: Relative MIC ([1]; evolved line 1 versus ancestor) | Relative MIC ([2]; EC-SEN (E. coli ATCC 25922), evolved line 6 vs ancestor) | Relative MIC ([2]; Escherichia coli ATCC 25922 (EC-SEN), evolved line 6)
2.408 log10: Relative MIC (log10) ([2]; EC-SEN (Escherichia coli ATCC 25922), evolved line 5)
128: Relative MIC ([1]; evolved line 2 versus ancestor) | Relative MIC ([1]; evolved line 3 versus ancestor) | Relative MIC ([2]; EC-SEN (E. coli ATCC 25922), evolved line 3 vs ancestor) | Relative MIC ([2]; EC-SEN (E. coli ATCC 25922), evolved line 4 vs ancestor) | Relative MIC ([2]; EC-SEN (E. coli ATCC 25922), evolved line 8 vs ancestor) | Relative MIC ([2]; EC-SEN (E. coli ATCC 25922), evolved line 10 vs ancestor) | Relative MIC ([2]; Escherichia coli ATCC 25922 (EC-SEN), evolved line 3) | Relative MIC ([2]; Escherichia coli ATCC 25922 (EC-SEN), evolved line 4) | Relative MIC ([2]; Escherichia coli ATCC 25922 (EC-SEN), evolved line 8) | Relative MIC ([2]; Escherichia coli ATCC 25922 (EC-SEN), evolved line 10)
2.107 log10: Relative MIC (log10) ([2]; EC-SEN (Escherichia coli ATCC 25922), evolved line 3) | Relative MIC (log10) [2, 6] | Relative MIC (log10) [2, 7] | Relative MIC (log10) [2, 8]
8: Relative MIC ([2]; EC-SEN (E. coli ATCC 25922), evolved line 2 vs ancestor) | Relative MIC ([2]; Escherichia coli ATCC 25922 (EC-SEN), evolved line 2)

POL7306
2: Relative MIC ([2]; ALE, Escherichia coli ATCC 25922 (EC-SEN), evolved line 1) | Relative MIC ([2]; ALE, Escherichia coli NCTC 13846 (EC-MDR), evolved line 1) | Relative MIC ([2]; ALE, Escherichia coli NCTC 13846 (EC-MDR), evolved line 6) | Relative MIC ([2]; ALE, Escherichia coli NCTC 13846 (EC-MDR), evolved line 7)
1: Relative MIC ([2]; ALE, Escherichia coli NCTC 13846 (EC-MDR), evolved line 2) | Relative MIC ([2]; ALE, Escherichia coli NCTC 13846 (EC-MDR), evolved line 3) | Relative MIC ([2]; ALE, Escherichia coli NCTC 13846 (EC-MDR), evolved line 4) | Relative MIC ([2]; ALE, Escherichia coli NCTC 13846 (EC-MDR), evolved line 5) | Relative MIC ([2]; ALE, Escherichia coli NCTC 13846 (EC-MDR), evolved line 9) | Relative MIC ([2]; ALE, Escherichia coli NCTC 13846 (EC-MDR), evolved line 10)
8: Relative MIC ([2]; ALE, Escherichia coli ATCC 25922 (EC-SEN), evolved line 2) | Relative MIC ([2]; ALE, Escherichia coli ATCC 25922 (EC-SEN), evolved line 8) | Relative MIC ([2]; ALE, Escherichia coli ATCC 25922 (EC-SEN), evolved line 9)
4: Relative MIC ([2]; ALE, Escherichia coli ATCC 25922 (EC-SEN), evolved line 3) | Relative MIC ([2]; ALE, Escherichia coli ATCC 25922 (EC-SEN), evolved line 4) | Relative MIC ([2]; ALE, Escherichia coli ATCC 25922 (EC-SEN), evolved line 5) | Relative MIC ([2]; ALE, Escherichia coli ATCC 25922 (EC-SEN), evolved line 6) | Relative MIC ([2]; ALE, Escherichia coli ATCC 25922 (EC-SEN), evolved line 7) | Relative MIC ([2]; ALE, Escherichia coli ATCC 25922 (EC-SEN), evolved line 10) | Relative MIC ([2]; ALE, Escherichia coli NCTC 13846 (EC-MDR), evolved line 8)

Source: publication PMC11845477, “Exploring the principles behind antibiotics with limited resistance” (Nature Communications, 2025)
